Measurements: US8586020B2, “Poly(organophosphazene) composition for biomaterials” (Korea Institute of Science and Technology, priority 2011, dated 2013)

Key:
[1] = pH 7.4

Substance | Max. Gelling Temp. [1] [°C] | cell viability (MTT) (NIH3T3 cells)
Poly[(isoleucineethylester)(aminomethoxy polyethyleneglycol550)(cysteamine)phosphazene] [Example 22] | 42 | such a high viability as the cell alone
Poly[(isoleucineethylester)(aminomethoxy polyethyleneglycol550)(cysteamine)phosphazene] [Example 21] | 38 | such a high viability as the cell alone
Poly[(isoleucineethylester)(aminomethoxy polyethyleneglycol550)(tyramine)phosphazene] [Example 24] | 34 | –
